# System: HepG2 cells
# Assay: Metabolism of model drug (fluorescein diacetate) by HepG2 cell hepatic tissue-type chip and excretion and accumulation of metabolites to bile canaliculus-like structure
# Format: in vitro ADME, human
# Settings: for distribution of fluorescein metabolized by HepG2 cells (green fluorescence): 1 hour uptake, after washing twice
# Procedure: (1) A culture medium containing fluorescein diacetate (FD) as a model drug at a concentration of 250 μg/mL was prepared, and 5 mL thereof was poured into a dish (60 mm in diameter ).
# (2) Next, the hepatic tissue-type chip on day 7 of culturing produced using HepG2 cells in Example 1 was immersed in the FD-containing culture medium prepared in (1) and cultured for 1 hour, such that the FD was taken into the cells.
# (3) Next, the chip was transferred into a new dish (diameter: 60 mm), into which 5 mL of Hank's Balanced Salt Solution (HBSS) was poured, and washed.
# (4) Next, the hepatic tissue-type chip was transferred into a new dish (diameter 60 mm ) into which 5 mL of a fresh culture medium was poured, immersed in the culture medium, and cultured for 1 hour. The discharging of fluorescein in the cells after 1 hour was confirmed by observation with a phase contrast microscope and a fluorescence microscope (refer to FIG. 8(A) to FIG. 8(C)).
# (1) HBSS containing fluorescein diacetate (FD) as a model drug at a concentration of 25 μg/mL was prepared, and 5 mL thereof was poured into a dish (60 mm in diameter).
# (2) Next, on day 32 of culturing, the hepatic tissue-type chip produced using HepG2 cells in Example 3 was immersed in the FD-containing HBSS prepared in (1) and cultured for 1 hour such that the FD was taken into the cells.
# (3) Next, the result was transferred into a new dish (diameter 60 mm) into which 5 mL of HBSS was poured, and washed.
# (4) Next, the hepatic tissue-type chip was transferred into a new dish (diameter 60 mm) into which 5 mL of fresh HBSS was poured, immersed in HBSS, and cultured for 1 hour. The discharge of fluorescein in the cells after 1 hour was confirmed by observation with a phase contrast microscope and a fluorescence microscope (refer to FIG. 12A (phase contrast microscope image) and FIG. 12B (fluorescence microscope image)). […]
structure (smiles),measurement,setting,value
O=C1OC2(c3ccc(O)cc3Oc3cc(O)ccc32)c2ccccc21 [fluorescein],excretion of fluorescein from the cells,"Example 2, chip on day 7 of culturing, 1 hour further culture in fresh culture medium after washing",excreted and accumulated in the bile canaliculus-like structure
same,distribution of fluorescein metabolized by HepG2 cells (green fluorescence),"Example 2, chip on day 7 of culturing, FD 250 μg/mL in culture medium",uniformly distributed in the cytoplasm
same,excretion of fluorescein from the cells,"Example 4, chip on day 32 of culturing, 1 hour further culture in fresh HBSS after washing",excreted and accumulated in the bile canaliculus-like structure
same,distribution of fluorescein metabolized by HepG2 cells (green fluorescence),"Example 4, chip on day 32 of culturing, FD 25 μg/mL in HBSS",uniformly distributed in the cytoplasm
same,excretion of fluorescein from the cells,"Example 10, chip on day 35 of culturing, 1 hour further culture in fresh HBSS after washing",excreted and accumulated in the bile canaliculus-like structure
same,distribution of fluorescein metabolized by HepG2 cells (green fluorescence),"Example 10, chip on day 35 of culturing, FD 25 μg/mL in HBSS",uniformly distributed in the cytoplasm

# From patent US20210230526A1, “Cell enclosure device and use for same” (National Agriculture and Food Research Organization, priority 2016, published 2021)
